Experimental data as given in patent US20190040063A1, “TRICYCLIC COMPOUND FOR BROMODOMAIN-CONTAINING PROTEIN INHIBITOR AND PREPARATION PHARMACEUTICAL COMPOSITION, AND APPLICATION THEREOF” (CHIA TAI TIANQING PHARMACEUTICAL GROUP CO., LTD., priority 2016, published 2019).

Experiments:
MV4-11 cells = assay: Cell proliferation activity assay (Cell-Titer Blue); type: cell-based; conditions: Homo sapiens, inhibiting cell proliferation, 72 h co-incubation
Experimental: Human acute […] leukemia cell line MV4-11 cells were cultured in PRIM1640 medium plus 10% fetal bovine serum (FBS, purchased from Biological Industries, BI) and 1% penicillin/streptomycin double antibody solution (P/S, purchased from Life Technology) at 37° C. with 5% CO2. On the day before the compound was tested, the MV4-11 cells were spread in a 96-well plate (purchased from Corning) at a concentration of 8,000 cells/195 μL/well. On the next day, the compound was serially diluted 3-fold with 100% DMSO starting from 10 mM (totally 10 concentrations). 2 μL of the resulting mixture at each concentration was diluted with 48 μL of PRIM1640 medium (purchased from Life Technology). 5 μL of the diluted compound at each concentration was added to the spread cell suspension, and the compound and cells were co-incubated in a cell incubator for 72 h (3 days), and then incubated for additional 4 h after adding 35 μL of Cell-Titer Blue reagent (purchased from Promega). Then the fluorescence values (excited at 560 nm, detected at 590 nm) were read on Flexstation III (purchased from Molecular Devices), and the data were calculated with GraphPad Prism software to obtain the IC50 value of the compound in inhibiting cell proliferation.

BRD4 = molecular target: T1, BRD4 (Homo sapiens, UniProt O60885); assay: In vitro enzymatic activity assay: inhibition of BRD4 enzyme binding reaction by HTRF; conditions: GST-BRD4 (51-462) 1 nM, acetylated short peptide 100 nM, 23° C., 60 min
T1 construct: GST-BRD4 (51-462) (purchased from Cisbio); purchased Cisbio
Experimental: IC50 values of the compounds of the present application in inhibiting BRD4 enzyme binding reaction were determined by homogeneous time resolved fluorescence (HTRF). A compound was serially diluted 5-fold with 100% DMSO starting from 1 mM (totally 7 concentrations). 2 μL of the compound at each concentration was added into 48 μL of a reaction buffer solution (20 mM HEPES pH7.5, 150 mM NaCl, 5 mM DTT, 0.005% Tween 20 and 100 μg/ml BSA) to be diluted and fully mixed. Then 2.5 μL of the resulting mixture was added to a 384-well plate (OptiPlate-384, purchased from PerkinElmer), 5 μL of GST-BRD4 (51-462) (purchased from Cisbio) (final concentration: 1 nM) was added, and the resulting mixture was centrifuged, and fully mixed. Then 2.5 μL of a short peptide Biotin-AHA-SGRGK(Ac)GGK-(Ac)GLGK(Ac)GGAK(Ac)RHRKV) (synthesized by GL Biochem (Shanghai) Ltd) (final concentration: 100 nM) was added to initiate the reaction (total reaction volume: 10 μL). The 384-well plate was placed in an incubator at 23° C. to react for 60 min, and then 5 μL of Eu3+ cryptate-labeled anti-GST antibody (purchased from Cisbio) and 5 μL of Streptavidin-XL-665 (purchased from Cisbio) were added to terminate the reaction. After an additional 1 hour incubation in the incubator, the fluorescence values (excited at 320 nm, emitted light at 665 nm and 620 nm being detected, and the ratio of the two being the enzyme binding signal) were read on Envision (purchased from PerkinElmer). The binding strength of each compound to the BRD4 protein was determined respectively at 7 concentrations, and the data were calculated with GraphPad Prism software to obtain the IC50 value of the compound.

Row | SMILES | IC50 (MV4-11 cells) [nM] | IC50 (BRD4) [nM]
1 | Cc1noc(C)c1-c1cnc2c3ccc(C(C)(C)O)nc3n([C@H](c3ccccc3)C3CCOCC3)c2c1 [Compound 16, (S)-2-{3-(3,5-dimethylisoxazol-4-yl)-5-[phenyl(tetrahydro-2H-pyran-4-yl)methyl]-5H-pyrrolo[2,3-b:4,5-b′]dipyridin-7-yl}propan-2-ol] | < 10 | < 2
2 | Cc1noc(C)c1-c1cnc2c3ncc(C(C)(C)O)cc3n(C(c3ccccc3)C3CCOCC3)c2c1 (stereo not drawn) [Compound 22, 2-(7-(3,5-Dimethylisoxazol-4-yl)-5-(phenyl(tetrahydro-2H-pyran-4-yl)methyl]-5H-pyrrolo[3,2-b:4,5-b′]dipyridin-3-yl)propan-2-ol] | < 10 | < 2
3 | Cc1noc(C)c1-c1cnc2c3cnc(C(C)(C)O)cc3n(C(c3ccccc3)C3CCOCC3)c2c1 (stereo not drawn) [Compound 4, 2-{3-(3,5-Dimethylisoxazol-4-yl)-5-[phenyl(tetrahydro-2H-pyran-4-yl)methyl]-5H-pyrrolo[3,2-b:4,5-c′]dipyridin-7-yl}propan-2-ol] | < 10 | < 2
4 | CCCC(CCC)n1c2cc(C(C)(C)O)ncc2c2ncc(-c3c(C)noc3C)cc21 [Compound 39, 2-[3-(3,5-Dimethylisoxazol-4-yl)-5-(heptan-4-yl)-5H-pyrrolo[3,2-b:4,5-c′]dipyridin-7-yl]propan-2-ol] | – | < 2
5 | Cc1noc(C)c1-c1cnc2c3ccc(C(C)(C)O)nc3n(C(c3ccccc3)C3CCOCC3)c2c1 (stereo not drawn) [Compound 6, 2-{3-(3,5-Dimethylisoxazol-4-yl)-5-[phenyl(tetrahydro-2H-pyran-4-yl)methyl]-5H-pyrrolo[2,3-b:4,5-b′]dipyridin-7-yl}propan-2-ol] | – | < 2
6 | Cc1noc(C)c1-c1cnc2c3cnc(C(C)(C)O)cc3n([C@@H](c3ccccc3)C3CCOCC3)c2c1 [Compound 12, (R)-2-{3-(3,5-dimethylisoxazol-4-yl)-5-[phenyl(tetrahydro-2H-pyran-4-yl)methyl]-5H-pyrrolo[3,2-b:4,5-c′]dipyridin-7-yl}propan-2-ol] | < 10 | < 2
7 | CCOC(=O)c1cc2c(cn1)c1ncc(-c3c(C)noc3C)cc1n2C(c1ccccc1)C1CCOCC1 (stereo not drawn) [Compound 3, Ethyl 3-(3,5-dimethylisoxazol-4-yl)-5-[phenyl(tetrahydro-2H-pyran-4-yl)methyl]-5H-pyrrolo[2,3-b:4,5-c′]dipyridine-7-carboxylate] | – | < 2
8 | COc1ccc2c(n1)c1ncc(-c3c(C)noc3C)cc1n2C(c1ccccc1)C1CCOCC1 (stereo not drawn) [Compound 1, 4-{8-Methoxy-5-[phenyl(tetrahydro-2H-pyran-4-yl)methyl]-5H-pyrrolo[3,2-b:4,5-b′]dipyridin-3-yl}-3,5-dimethylisoxazole] | – | < 2
9 | CCOC(=O)c1cc2c(cn1)c1ncc(-c3c(C)noc3C)cc1n2[C@H](c1ccccc1)C1CCOCC1 [Compound 9, Ethyl (S)-3-(3,5-dimethylisoxazol-4-yl)-5-[phenyl(tetrahydro-2H-pyran-4-yl)methyl]-5H-pyrrolo[3,2-b:4,5-c′]dipyridine-7-carboxylate] | – | < 2
10 | Cc1nnn(C)c1-c1cnc2c3ccc(C(C)(C)O)nc3n(C(c3ccccc3)C3CCOCC3)c2c1 (stereo not drawn) [Compound 20, 2-(3-(1,4-Dimethyl-1H-1,2,3-triazol-5-yl)-5-[phenyl(tetrahydro-2H-pyran-4-yl)methyl]-5H-pyrrolo[2,3-b:4,5-b′]dipyridin-7-yl)propan-2-ol] | – | < 2
11 | Cc1noc(C)c1-c1cc(F)c2c3ncc(C(C)(C)O)cc3n(C(c3ccccc3)C3CCOCC3)c2c1 (stereo not drawn) [Compound 24, 2-{7-(3,5-dimethylisoxazol-4-yl)-9-fluoro-5-[phenyl(tetrahydro-2H-pyran-4-yl)methyl]-5H-pyridino[3,2-b]indol-3-yl}propan-2-ol] | < 10 | < 2
12 | Cc1noc(C)c1-c1cnc2c3ccncc3n(C(c3ccccc3)C3CCOCC3)c2c1 (stereo not drawn) [Compound 37, 3,5-Dimethyl-4-{5-[phenyl(tetrahydro-2H-pyran-4-yl)methyl]-5H-pyrrolo[3,2-b:5,4-c′]dipyridin-3-yl}isoxazole] | – | < 2
13 | Cc1noc(C)c1-c1cnc2c3cnc(C(C)(C)O)cc3n([C@H](c3ccccc3)C3CCOCC3)c2c1 [Compound 10, (S)-2-{3-(3,5-dimethylisoxazol-4-yl)-5-[phenyl(tetrahydro-2H-pyran-4-yl)methyl]-5H-pyrrolo[3,2-b:4,5-c′]dipyridin-7-yl}propan-2-ol] | < 10 | < 2

More lines, now with the values ahead:

Row | IC50 (MV4-11 cells) [nM] | IC50 (BRD4) [nM] | SMILES
14 | – | < 2 | Cc1noc(C)c1-c1cnc2c3ccc(C(C)O)nc3n(C(c3ccccc3)C3CCOCC3)c2c1 (stereo not drawn) [Compound 57, 1-{3-(3,5-Dimethylisoxazol-4-yl)-5-[phenyl(tetrahydro-2H-pyran-4-yl)methyl]-5H-pyrrolo[2,3-b:4,5-b′]dipyridin-7-yl}ethan-1-ol]
15 | – | < 2 | CC(=O)c1ccc2c3ncc(-c4c(C)noc4C)cc3n(C(c3ccccc3)C3CCOCC3)c2n1 (stereo not drawn) [Compound 56, 1-{3-(3,5-Dimethylisoxazol-4-yl)-5-[phenyl(tetrahydro-2H-pyran-4-yl)methyl]-5H-pyrrolo[2,3-b:4,5-b′]dipyridin-7-yl}ethyl-1-one]
16 | < 10 | < 2 | Cc1noc(C)c1-c1cnc2c3ccc(C(N)=O)nc3n(C(c3ccccc3)C3CCOCC3)c2c1 (stereo not drawn) [Compound 50, 3-(3,5-Dimethylisoxazol-4-yl)-5-[phenyl(tetrahydro-2H-pyran-4-yl)methyl]-5H-pyrrolo [2,3-b:4,5-b′]dipyridine-7-carboxamide]
17 | – | < 2 | Cc1noc(C)c1-c1cnc2c3ccc(C(C)(C)O)nc3n(C(c3ncccc3F)C3CCOCC3)c2c1 (stereo not drawn) [Compound 60]
18 | < 10 | < 2 | Cc1noc(C)c1-c1cnc2c3ccc(N)nc3n(C(c3ccccc3)C3CCOCC3)c2c1 (stereo not drawn) [Compound 52, 3-(3,5-Dimethylisoxazol-4-yl)-5-[phenyl(tetrahydro-2H-pyran-4-yl)methyl]-5H-pyrrolo[2,3-b:4,5-b′]dipyridine-7-amine]
19 | < 10 | < 2 | Cc1noc(C)c1-c1cnc2c3ccc(O)nc3n(C(c3ccccc3)C3CCOCC3)c2c1 (stereo not drawn) [Compound 43, 3-(3,5-Dimethylisoxazol-4-yl)-5-[phenyl(tetrahydro-2H-pyran-4-yl)methyl]-5H-pyrrolo[2,3-b:4,5-b′]dipyridine-7-ol]
20 | – | < 2 | CON(C)C(=O)c1ccc2c3ncc(-c4c(C)noc4C)cc3n(C(c3ccccc3)C3CCOCC3)c2n1 (stereo not drawn) [Compound 55, 3-(3,5-Dimethylisoxazol-4-yl)-N-methoxy-N-methyl-5-[phenyl(tetrahydro-2H-pyran-4-yl)methyl]-5H-pyrrolo[2,3-b:4,5-b′]dipyridine-7-carboxamide]
21 | – | < 2 | Cc1noc(C)c1-c1cnc2c3cnc(C(C)(C)O)cc3n(C(c3ccccc3)c3cscn3)c2c1 (stereo not drawn) [Compound 41, 2-{3-(3,5-Dimethylisoxazol-4-yl)-5-[phenyl(thiazol-4-yl)methyl]-5H-pyrrolo[3,2-b:4,5-c′]dipyridin-7-yl}propan-2-ol]
